# Assay results reported in article PMC3997336 (PLoS ONE, 2014).
# Molecular target: T1, MKK7 (Homo sapiens, UniProt O14733)
# T1 construct: gene MAP2K7
# Experiment: biochemical
# T1 sequence (O14733 2-419): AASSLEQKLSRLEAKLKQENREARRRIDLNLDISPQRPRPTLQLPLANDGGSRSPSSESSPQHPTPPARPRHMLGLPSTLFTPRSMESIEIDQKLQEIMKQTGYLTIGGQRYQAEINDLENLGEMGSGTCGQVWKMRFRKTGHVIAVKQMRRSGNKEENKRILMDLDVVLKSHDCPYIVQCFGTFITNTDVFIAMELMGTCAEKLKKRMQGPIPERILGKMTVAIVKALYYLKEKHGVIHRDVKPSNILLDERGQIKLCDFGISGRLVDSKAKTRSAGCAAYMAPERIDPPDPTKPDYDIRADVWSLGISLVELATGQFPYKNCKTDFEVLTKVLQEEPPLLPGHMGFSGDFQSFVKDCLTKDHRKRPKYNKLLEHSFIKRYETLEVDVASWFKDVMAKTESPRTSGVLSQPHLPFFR
structure (smiles),measurement,value
COc1ccc2c(Cc3ccc(O[Si](C)(C)C(C)(C)C)cc3)c3[n+](cc2c1OC)CCc1cc2c(cc1-3)OCO2 [HWY336],IC50,10 µM
